From patent US4124726A, “Anti-inflammatory agent of benzoyl derivative” (priority 1976, dated 1978)

Key:
[1] = system: carragheenin edema; experiment: acute carragheenin edema inhibition (anti-inflammatory effect); assay type: in vivo, male rats; conditions: for ED50: oral, read-out: 50% inhibition rate ED50; for ED50 / Anti-inf. (edema inhibition rate): Table 2
Protocol: The edema was induced by subcutaneous injection of 1% carraheenin suspension in saline to the hind paws of male rats weighing 150 to 180 g. Each sample was orally given at the dosage of 100 mg/kg just before the inoculation of carragheenin.

[2] = system: platelet aggregation; experiment: blood platelet aggregation inhibition, collagen as inducer; assay type: cell-based; conditions: 10^-4 mole, rabbit PRP
Excerpt: Blood platelet aggregation inhibiting effect
Male rabbits (Japan original white strain 3.3 to 3.6 kg) were anesthetized with Thiopental sodium and blood was sampled from the carotid artery.

[3] = in vivo; conditions: mouse, po
Protocol: Each sample was dissolved in olive oil or dispersed in 1% Tween 20 aqueous solution.

[4] = system: painful stretchings induced by acetic acid; experiment: acetic acid induced stretching (analgesic effect); conditions: 100 mg/kg oral, 0.7% acetic acid i.p., mice
Protocol: Each sample was orally administrated in the dosage of 100 mg/kg before injection of acetic acid.

[5] = Rattus norvegicus, carragheenin edema, rats
[6] = 100 mg/kg oral, carragheenin edema, rats

| Compound | anti-inflammatory effect, inhibition rate (ED50), in words [1] | ED50 [1, 5] | Blood platelet agg. inh. (percentage inhibition of platelet aggregation) [2] | LD50 at 72 h [3] | Analgesic (percentage diminution of times of painful stretchings) [4] | Anti-inf. (edema inhibition rate) [1, 6] | inhibition in vivo at 100 mg/kg ([1]; Rattus norvegicus, Table 2', 100 mg/kg oral, carragheenin edema, rats, read-out: Anti-inf.) | Anti-inf. ([1]; Table 2', 100 mg/kg oral, carragheenin edema, rats) |
| --- | --- | --- | --- | --- | --- | --- | --- | --- |
| CCCCc1ccc(C(=O)c2ccccc2F)cc1 [Active ingredient No. 8, 4-n-butyl-2'-fluorobenzophenone] | especially high inhibition rate |  |  |  |  |  |  |  |
| CCCCCc1ccc(C(=O)c2ccccc2F)cc1 [Active ingredient No. 9, 2-Fluoro-4'-n-amyl-benzophenone] | especially high inhibition rate |  |  |  |  |  |  |  |
| Cc1cc(C)c(C(=O)c2ccccc2F)c(C)c1 [Active ingredient No. 11, 2-Fluoro-2',4',6'-trimethyl-benzophenone] | especially high inhibition rate |  |  |  |  |  |  |  |
| O=C(c1ccccc1)c1ccccc1F [Active ingredient No. 15, 2-fluorobenzophenone] | especially high inhibition rate |  |  |  |  |  |  |  |
| CCCCc1ccc(C(=O)c2ccccc2)cc1 [Active ingredient No. 19, 4-n-butyl benzophenone] | especially high inhibition rate |  |  |  |  |  |  |  |
| CCCc1ccc(C(=O)c2ccccc2F)cc1 [compound 7] |  | 78 mg/kg | 23.0% | 1500 mg/kg | 15.0% |  |  |  |
| CCCCCc1ccc(C(=O)c2ccccc2F)cc1 [compound 9] |  | 22 mg/kg | 14.6% | 3000 mg/kg | 15.3% |  |  |  |
| Cc1ccc(C(=O)c2ccccc2F)c(C)c1 [compound 10] |  | 90 mg/kg | 18.5% | 500 mg/kg | 20.3% |  |  |  |
| Cc1cc(C)c(C(=O)c2ccccc2F)c(C)c1 [compound 11] |  | 22 mg/kg | 16.5% | 500 mg/kg | 13.9% |  |  |  |
| CCc1cc(CC)c(C(=O)c2ccccc2)c(CC)c1 [compound 13] |  | > 400 mg/kg | 14.3% | 2000 mg/kg | 15.8% |  |  |  |
| Cc1cc(C)c(C(=O)c2ccc(Cl)cc2)c(C)c1 [compound 14] |  | 130 mg/kg | 18.1% | 500 mg/kg | 19.2% |  |  |  |
| O=C(c1ccccc1)c1ccccc1F [compound 15] |  | 65 mg/kg | 23.2% | 4000 mg/kg | 18.5% |  |  |  |
| CCCc1ccc(CCC)c(C(=O)c2ccccc2)c1 [compound 16] |  | 140 mg/kg | 8.6% | 1500 mg/kg | 12.4% |  |  |  |
| CCCCc1ccc(CCCC)c(C(=O)c2ccc(C)cc2)c1 [compound 17] |  | 180 mg/kg | 17.3% | 2000 mg/kg | 10.3% |  |  |  |
| CCCCCCCc1ccc(C(=O)c2ccccc2)cc1 [compound 25] |  |  | 7.8% | 8000 mg/kg | 48.6% |  |  |  |
| CCCCCCCCc1ccc(C(=O)c2ccccc2)cc1 [compound 26] |  |  | 3.1% | 10000 mg/kg | 35.9% |  |  |  |
| CCCCc1ccc(C(=O)C(=O)c2ccccc2)cc1 [compound 29] |  | 130 mg/kg | 11.1% | 10000 mg/kg | 2.7% |  |  |  |
| Cc1ccc(C(=O)c2ccccc2)c(C)c1C [compound 31] |  |  | 18.2% | 1500 mg/kg | 9.5% |  |  |  |
| CCc1ccc(C(=O)c2ccc(C)cc2)cc1 [compound 33] |  |  | 20.5% | 3000 mg/kg | 15.5% |  |  |  |
| CCCc1ccc(C(=O)c2ccc(C)cc2)cc1 [compound 34] |  |  | 16.4% | 5000 mg/kg | 12.1% |  |  |  |
| CCCCCc1ccc(C(=O)c2ccccc2C)cc1 [compound 41] |  |  | 14.4% | 3000 mg/kg | 14.6% |  |  |  |
| CCCCOc1ccc(C(=O)c2ccccc2)cc1 [compound 42] |  |  | 4.4% | 3000 mg/kg | 26.8% |  |  |  |
| CCCc1ccc(C(=O)Cc2ccccc2)cc1 [compound 49] |  |  | 28.5% | 8000 mg/kg | 18.2% |  |  |  |

| Compound | anti-inflammatory effect, inhibition rate (ED50), in words [1] | ED50 [1, 5] | Blood platelet agg. inh. (percentage inhibition of platelet aggregation) [2] | LD50 at 72 h [3] | Analgesic (percentage diminution of times of painful stretchings) [4] | Anti-inf. (edema inhibition rate) [1, 6] | inhibition in vivo at 100 mg/kg ([1]; Rattus norvegicus, Table 2', 100 mg/kg oral, carragheenin edema, rats, read-out: Anti-inf.) | Anti-inf. ([1]; Table 2', 100 mg/kg oral, carragheenin edema, rats) |
| --- | --- | --- | --- | --- | --- | --- | --- | --- |
| CCCCCCc1ccc(C(=O)C(=O)c2ccccc2)cc1 [compound 56] |  |  | 20.3% | 10000 mg/kg | 20.5% |  |  |  |
| CCCCc1ccc(C(=O)c2ccc(Cl)cc2)cc1 [compound 64] |  |  | 28.5% | 3000 mg/kg | 6.6% |  |  |  |
| CCc1ccc(C(=O)c2ccccc2)cc1 [compound 66] |  |  | 20.7% | 2000 mg/kg | 15.7% |  |  |  |
| CC(C)Cc1ccc(C(=O)c2ccccc2)cc1 [compound 67] |  |  | 18.5% | 2000 mg/kg | 19.1% |  |  |  |
| Cc1ccc(C(=O)c2ccccc2)cc1C [compound 72] |  |  | 28.7% | 1000 mg/kg | 23.4% |  |  |  |
| COc1ccc(C(=O)c2ccccc2)c(OC)c1 [compound 74] |  |  | 18.5% | 5000 mg/kg | 24.2% |  |  |  |
| COc1ccc(OC)c(C(=O)c2ccccc2)c1 [compound 75] |  |  | 30.7% | 5000 mg/kg | 22.0% |  |  |  |
| COc1cc(OC)c(C(=O)c2ccccc2)c(OC)c1 [compound 76] |  |  | 16.2% | 2500 mg/kg | 13.9% |  |  |  |
| Cc1cc(C)c(C(=O)c2ccccc2)c(C)c1C [compound 79] |  |  | 26.8% | 1000 mg/kg | 20.8% |  |  |  |
| CCCCCCCc1ccc(C(=O)c2ccc(C)cc2)cc1 [compound 85] |  |  | 18.7% |  |  | 18.7% |  |  |
| CCCCCc1ccc(C(=O)c2cccc(C)c2)cc1 [compound 89] |  |  | 22.6% | 10000 mg/kg | 4.3% |  |  |  |
| CCCCOc1ccc(C(=O)c2c(C)cc(C)cc2C)cc1 [compound 94] |  |  | 27.9% | 500 mg/kg | 15.8% |  |  |  |
| CCCCc1ccc(C(=O)c2ccc(CCC)cc2)cc1 [compound 98] |  |  | 28.3% | 4000 mg/kg | 16.4% |  |  |  |
| CCCCCc1ccc(C(=O)c2ccc(CCC)cc2)cc1 [compound 99] |  |  | 29.5% | 5000 mg/kg | 15.5% |  |  |  |
| CCCCCCc1ccc(C(=O)c2c(C)cc(C)cc2C)cc1 [compound 103] |  |  | 29.5% | 500 mg/kg | 14.2% |  |  |  |
| CCCc1ccc(C(=O)c2ccc(O)cc2)cc1 [compound 104] |  |  | 25.3% | 3000 mg/kg | 13.2% |  |  |  |
| CCCCCc1ccc(C(=O)c2ccc(O)cc2)cc1 [compound 105] |  |  | 24.1% | 4000 mg/kg | 14.1% |  |  |  |
| CCc1ccc(C(=O)c2ccc(CC)cc2)cc1 [compound 106] |  |  | 20.3% | 1000 mg/kg | 7.3% |  |  |  |
| CCc1ccc(C(=O)c2ccc(OC)cc2)cc1 [compound 107] |  |  | 20.3% |  |  | 20.3% |  |  |
| O=C(c1ccccc1)c1ccccc1C(=O)c1ccccc1 [compound 113] |  |  | 25.8% | 4000 mg/kg | 14.5% |  |  |  |
| O=C(c1ccc(F)cc1)c1ccc(F)cc1 [compound 114] |  |  | 26.8% | 2000 mg/kg | 18.3% |  |  |  |
| CCCC(C)c1ccc(C(=O)c2ccccc2F)cc1 (centres unmarked) [compound 121] |  |  |  | 3000 mg/kg |  |  | 64.5% |  |
| CCCCCCCCc1ccc(C(=O)c2cccc(I)c2)cc1 [compound 161] |  |  |  | 5000 mg/kg |  |  |  | 20.9 |
